# Data from patent publication US8993585B2, “Cyclic amine substituted pyrimidinediamines as PKC inhibitors” (Rigel Pharmaceuticals, Inc., priority 2007, dated 2015).
# What was measured:
# PKC theta = target: T1, PKC theta (Homo sapiens, UniProt Q04759); assay: PKC assay, fluorescence polarization (Example 2), PKC theta; format: biochemical; settings: 5 μM ATP
# T1 construct: purchased Upstate Biotechnologies, Temecula, CA 14-444
# How it was run: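 Phosphorylated peptide product detected by fluorescence polarization, with EDTA quench plus peptide tracer and antibody. Reaction in 20 mM HEPES pH 7.4, 5 mM MgCl2, 0.2 mM CaCl2, 1 mM DTT, 0.02% Brij-35, phosphatidylserine and dioleoyl-sn-glycerol, with 5 μM ATP and 5 μM peptide. Started with enzyme, 20 min at room temperature.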
# PKC epsilon = target: T2, PKC epsilon (Homo sapiens, UniProt Q02156); assay: PKC assay, fluorescence polarization (Example 2), PKC epsilon; format: biochemical; settings: 5 μM ATP
# T2 construct: purchased Upstate Biotechnologies, Temecula, CA 14-518
# T2 sequence (Q02156 1-737): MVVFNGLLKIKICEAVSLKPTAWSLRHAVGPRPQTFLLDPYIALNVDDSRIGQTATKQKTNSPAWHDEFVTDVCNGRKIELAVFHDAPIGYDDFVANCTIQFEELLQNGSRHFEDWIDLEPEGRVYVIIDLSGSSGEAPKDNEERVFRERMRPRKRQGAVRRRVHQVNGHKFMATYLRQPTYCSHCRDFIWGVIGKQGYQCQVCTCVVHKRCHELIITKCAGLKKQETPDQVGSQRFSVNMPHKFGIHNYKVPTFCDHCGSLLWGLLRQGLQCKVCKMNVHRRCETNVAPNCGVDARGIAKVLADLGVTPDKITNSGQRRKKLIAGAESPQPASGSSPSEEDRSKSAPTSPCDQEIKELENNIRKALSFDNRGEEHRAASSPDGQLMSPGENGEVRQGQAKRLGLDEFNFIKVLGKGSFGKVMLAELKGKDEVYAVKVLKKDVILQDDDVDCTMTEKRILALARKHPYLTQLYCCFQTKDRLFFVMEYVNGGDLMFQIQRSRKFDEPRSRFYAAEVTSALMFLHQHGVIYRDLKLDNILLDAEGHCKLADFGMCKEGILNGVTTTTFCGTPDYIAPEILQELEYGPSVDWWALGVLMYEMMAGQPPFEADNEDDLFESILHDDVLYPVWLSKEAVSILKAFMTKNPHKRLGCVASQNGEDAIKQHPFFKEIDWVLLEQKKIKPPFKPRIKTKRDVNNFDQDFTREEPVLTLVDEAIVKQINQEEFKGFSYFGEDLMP
# Procedure: The inhibition of PKC activity was measured by monitoring the production of phosphorylated peptide by fluorescence polarization at different concentrations of the inhibitor. Reactions were carried out in 96-well plate format with a total volume of 20 μL containing 20 mM HEPES, pH 7.4, 5 mM MgCl2, 0.2 mM CaCl2, 1 mM DTT, 0.02% Brij-35, 0.1 mg/mL phosphatidylserine, 0.02 mg/mL dioleoyl-sn-glycerol and 5 μM each of ATP and the peptide substrate. Compounds were first diluted serially in DMSO and then transferred to a solution containing the above concentrations of HEPES, MgCl2, CaCl2, DTT, and Brij-35 to yield 5× compound solutions in 2% DMSO, which was then added to the reaction solution. Reactions were initiated by the addition of PKC at a typical concentration as described in Table VI, and then allowed to incubate at room temperature for 20 min. At the end of this time, a combination of quench (EDTA) and detection (peptide tracer and antibody) reagents was added using the protocol of Invitrogen P2748.
# Human primary T cells = assay: IL-2 ELISA, Human Primary T Cell, Anti-CD3+CD28+ (Example 3); format: cell-based; settings: anti-CD3+CD28 stimulation
# How it was run: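 Human primary T cells, 100,000 per well, were pre-incubated with compound in Yssel's medium for 1 h at 37 °C. The counter-assay used 0.5 ng/ml PMA with 0.1 uM ionomycin final.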
# T1 sequence (Q04759 whole entry): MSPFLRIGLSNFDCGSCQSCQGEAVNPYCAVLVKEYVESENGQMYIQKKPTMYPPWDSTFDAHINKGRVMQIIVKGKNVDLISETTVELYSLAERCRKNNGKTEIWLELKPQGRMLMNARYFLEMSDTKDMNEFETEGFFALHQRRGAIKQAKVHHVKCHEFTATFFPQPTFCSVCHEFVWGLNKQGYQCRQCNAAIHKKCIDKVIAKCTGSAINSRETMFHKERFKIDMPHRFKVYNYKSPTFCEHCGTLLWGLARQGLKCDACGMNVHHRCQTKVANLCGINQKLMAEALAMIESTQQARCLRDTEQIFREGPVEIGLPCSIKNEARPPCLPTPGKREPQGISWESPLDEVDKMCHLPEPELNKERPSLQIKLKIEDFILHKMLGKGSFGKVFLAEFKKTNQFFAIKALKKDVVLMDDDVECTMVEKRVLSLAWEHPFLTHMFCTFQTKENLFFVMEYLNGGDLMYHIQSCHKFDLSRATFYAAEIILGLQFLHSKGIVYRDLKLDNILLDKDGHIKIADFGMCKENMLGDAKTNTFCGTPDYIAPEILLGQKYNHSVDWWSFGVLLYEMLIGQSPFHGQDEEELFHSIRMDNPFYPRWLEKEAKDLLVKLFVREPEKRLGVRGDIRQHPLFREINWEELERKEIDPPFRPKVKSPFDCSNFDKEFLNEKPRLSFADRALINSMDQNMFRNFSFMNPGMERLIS
SMILES,IC50 (PKC theta) [nM],IC50 (PKC epsilon) [nM],"IC50 (Human primary T cells; Homo sapiens, T-cell, 24 h) [nM]",IC50 (Human primary T cells; 24 hours) [nM]
CN1C(C)(C)CC(Nc2nc(Nc3ccc(-c4ccoc4)c(F)c3)ncc2F)CC1(C)C [Compound I-119],55.3,27.8,309,–
Cc1cc(Nc2ncc(F)c(NC3CC(C)(C)N(C)C(C)(C)C3)n2)ccc1-c1cccnc1 [Compound I-121],23.7,15.8,268,–
Cc1cc(Nc2ncc(F)c(NC3CC(C)(C)N(C)C(C)(C)C3)n2)ccc1-c1ccoc1 [Compound I-122],60.7,18.7,295,–
COc1cc(Nc2ncc(F)c(NC3CC(C)(C)N(C)C(C)(C)C3)n2)cc(OC)c1 [Compound I-129],4.19,26.8,214,–
CN1CCN(c2ccc(Nc3ncc(F)c(NC4CC(C)(C)N(C)C(C)(C)C4)n3)cc2C#N)CC1 [Compound I-132],1.82,12.5,64.9,–
CN1C(C)(C)CC(Nc2nc(Nc3ccc(F)c(C#N)c3)ncc2F)CC1(C)C [Compound I-140],5.48,158,229,–
CN1C(C)(C)CC(Nc2nc(Nc3ccc(C#N)c(C#N)c3)ncc2F)CC1(C)C [Compound I-141],3.29,249,245,–
Cc1ccc(Nc2ncc(F)c(NC3CC(C)(C)N(C)C(C)(C)C3)n2)cc1C#N [Compound I-142],2.92,31,80.7,–
COc1ccc(Nc2ncc(F)c(NC3CC(C)(C)N(C)C(C)(C)C3)n2)cc1C(F)(F)F [Compound I-147],8.01,115,168,–
CN1C(C)(C)CC(Nc2nc(Nc3ccc(-n4cccc4)c(C#N)c3)ncc2F)CC1(C)C [Compound I-148],13.5,150,223,–
CN1C(C)(C)CC(Nc2nc(Nc3ccc(Cl)c(C#N)c3)ncc2Cl)CC1(C)C [Compound I-165],2.56,311,292,–
CN1C(C)(C)CC(Nc2nc(Nc3ccc(F)c(C#N)c3)ncc2Cl)CC1(C)C [Compound I-166],4.26,198,281,–
CN1C(C)(C)CC(Nc2nc(Nc3ccc(-n4cccc4)c(C#N)c3)ncc2Cl)CC1(C)C [Compound I-167],3.87,197,227,–
Cc1ccc(Nc2ncc(Cl)c(NC3CC(C)(C)N(C)C(C)(C)C3)n2)cc1C#N [Compound I-168],2.72,32.7,120,–
CN1CCN(c2ccc(Nc3ncc(C(F)(F)F)c(NC4CC(C)(C)N(C)C(C)(C)C4)n3)cc2C#N)CC1 [Compound I-178],0.81,160,243,–
Cc1ccc(Nc2ncc(F)c(NC3CC(C)(C)N(C)C(C)(C)C3)n2)cc1-c1ccncc1 [Compound I-187],4.92,51,305,–
Cc1ccc(Nc2ncc(F)c(NC3CC(C)(C)N(C)C(C)(C)C3)n2)cc1-c1ccoc1 [Compound I-188],4.74,36.7,178,–
Cc1ccc(Nc2ncc(F)c(NC3CC(C)(C)N(C)C(C)(C)C3)n2)cc1-c1cccnc1 [Compound I-197],4.38,60.3,–,237
CN1C(C)(C)CC(Nc2nc(Nc3ccc(N4CCSCC4)c(C#N)c3)ncc2F)CC1(C)C [Compound I-199],2.88,9.58,135,–
CN1C(C)(C)CC(Nc2nc(Nc3ccc(N4CCCC4)c(C#N)c3)ncc2F)CC1(C)C [Compound I-200],1.11,41.9,185,–
CN1C(C)(C)CC(Nc2nc(Nc3ccc(C(F)(F)F)c(N4CCN(S(C)(=O)=O)CC4)c3)ncc2F)CC1(C)C [Compound I-216],5.99,29,174,–

SMILES,IC50 (PKC theta) [nM],IC50 (PKC epsilon) [nM],"IC50 (Human primary T cells; Homo sapiens, T-cell, 24 h) [nM]",IC50 (Human primary T cells; 24 hours) [nM]
CCCN1CCN(c2cc(Nc3ncc(F)c(NC4CC(C)(C)N(C)C(C)(C)C4)n3)ccc2C(F)(F)F)CC1 [Compound I-218],6.52,18.4,216,–
CN1C(C)(C)CC(Nc2nc(Nc3cccc(OC(F)(F)F)c3)ncc2F)CC1(C)C [Compound I-223],31.7,119,184,–
CN1C(C)(C)CC(Nc2nc(Nc3ccc(N4CCOCC4)c(C(F)(F)F)c3)ncc2F)CC1(C)C [Compound I-224],29.1,19,112,–
CN1C(C)(C)CC(Nc2nc(Nc3ccc(N4CCCC4)c(C(F)(F)F)c3)ncc2F)CC1(C)C [Compound I-232],63.4,42,894,–
CN1C(C)(C)CC(Nc2nc(Nc3ccc(N4CCOCC4)c(OC(F)F)c3)ncc2F)CC1(C)C [Compound I-235],1.27,16.8,156,–
COc1ccc(Nc2ncc(F)c(NC3CC(C)(C)N(C)C(C)(C)C3)n2)cc1OC(F)F [Compound I-239],2.06,54.6,99.1,–
CCN1CCN(c2ccc(Nc3ncc(F)c(NC4CC(C)(C)N(C)C(C)(C)C4)n3)cc2C(F)(F)F)CC1 [Compound I-246],3.37,9.94,117,–
CCCN1CCN(c2ccc(Nc3ncc(F)c(NC4CC(C)(C)N(C)C(C)(C)C4)n3)cc2C(F)(F)F)CC1 [Compound I-247],19.9,66.9,131,–
CCN1CCN(c2ccc(Nc3ncc(F)c(NC4CC(C)(C)N(C)C(C)(C)C4)n3)cc2Cl)CC1 [Compound I-248],2.75,13.4,110,–
CN1CCN(c2ncc(Nc3ncc(F)c(NC4CC(C)(C)N(C)C(C)(C)C4)n3)cc2C(F)(F)F)CC1 [Compound I-273],3.34,4.87,–,217
COc1cc(Nc2ncc(Cl)c(NC3CC(C)(C)N(C)C(C)(C)C3)n2)cc(OC)c1 [Compound I-340],2.81,15.6,159,–
COc1ccc(Nc2ncc(Cl)c(NC3CC(C)(C)N(C)C(C)(C)C3)n2)cc1OC(F)F [Compound I-341],0.55,53.2,45.6,–
COc1cc(Nc2ncc(F)c(NC3CC(C)(C)N(C)C(C)(C)C3)n2)cc(-n2cnnn2)c1 [Compound I-342],0.95,1.57,31.8,–
CN1C(C)(C)CC(Nc2nc(Nc3ccc(OC(F)F)c(OC(F)F)c3)ncc2F)CC1(C)C [Compound I-344],6.54,40.7,205,–
COc1ccc(Nc2ncc(F)c(NC3CC(C)(C)N(C)C(C)(C)C3)n2)cc1-n1c(C)ccc1C [Compound I-348],3.66,100,172,–
COc1ccc(Nc2ncc(C(F)(F)F)c(NC3CC(C)(C)N(C)C(C)(C)C3)n2)cc1OC(F)F [Compound I-350],3.41,589,161,–
COc1cc(Nc2ncc(C(F)(F)F)c(NC3CC(C)(C)N(C)C(C)(C)C3)n2)cc(-n2cnnn2)c1 [Compound I-356],7.26,43,96,–
CN1C(C)(C)CC(Nc2nc(Nc3cccc(-n4cnnn4)c3)ncc2F)CC1(C)C [Compound I-357],5.11,7.11,67.6,–
COc1cc(Nc2ncc(C(F)(F)F)c(NC3CC(C)(C)N(C)C(C)(C)C3)n2)cc(OC)c1 [Compound I-363],4.17,54.8,233,–
COc1cc(Nc2ncc(C#N)c(NC3CC(C)(C)N(C)C(C)(C)C3)n2)cc(OC)c1 [Compound I-364],4.1,27.8,270,–
